# Assay results reported in publication PMC7865522, “Analyzing Kinase Similarity in Small Molecule and Protein Structural Space to Explore the Limits of Multi-Target Screening” (Molecules, 2021).
# Assays:
# [1] = molecular target: T1, PI3K (Homo sapiens, UniProt P42336); experiment: Eurofins in vitro kinase inhibition assay (HTRF, PIP3 displacement); assay type: biochemical; parameters: purchased Eurofins Cerep (contract assay); settings: compound 20 µM; mean (SD); above 50% significant, 25-50% weak
# Protocol: (§1) Kinase inhibition assays for EGFR, ErbB2, PI3K and BRAF were carried out by Eurofins Cerep following the protocols of Weber et al. (EGFR), Quian et al. (ErbB2), Sinnamon et al. (PI3K) and Kupcho et al. (BRAF). Briefly, except for PI3K, compounds were incubated with the respective kinase, ATP, and a substrate analog, and the effect of each compound on phosphorylation was measured. In the case of PI3K, the displacement of biotinylated PIP3 from a PIP3-binding complex by unlabelled PIP3 (produced from PIP2 by PI3K) was measured by Homogeneous Time Resolved Fluorescence (HTRF).
# (§2) Finally, inhibition of the respective kinases is calculated as the percentage inhibition of control activity.
# (§3) Table S3. Experimental results from the Euroﬁns assay. Inhibition of four kinases (EGFR, PI3K, ErbB2, BRAF) was measured at compound concentrations of 20 µM. Inhibition was calculated as % inhibition of control activity. According to CRO, values above 50% inhibition represent signiﬁcant inhibition, values above 25% weak inhibition effect and values below 25% as well as negative values are usually not signiﬁcant. Results are reported in mean (SD) format. […]
# (§4) a Compound interfered with assay readout.
# Target sequence in this assay (P42336 whole entry): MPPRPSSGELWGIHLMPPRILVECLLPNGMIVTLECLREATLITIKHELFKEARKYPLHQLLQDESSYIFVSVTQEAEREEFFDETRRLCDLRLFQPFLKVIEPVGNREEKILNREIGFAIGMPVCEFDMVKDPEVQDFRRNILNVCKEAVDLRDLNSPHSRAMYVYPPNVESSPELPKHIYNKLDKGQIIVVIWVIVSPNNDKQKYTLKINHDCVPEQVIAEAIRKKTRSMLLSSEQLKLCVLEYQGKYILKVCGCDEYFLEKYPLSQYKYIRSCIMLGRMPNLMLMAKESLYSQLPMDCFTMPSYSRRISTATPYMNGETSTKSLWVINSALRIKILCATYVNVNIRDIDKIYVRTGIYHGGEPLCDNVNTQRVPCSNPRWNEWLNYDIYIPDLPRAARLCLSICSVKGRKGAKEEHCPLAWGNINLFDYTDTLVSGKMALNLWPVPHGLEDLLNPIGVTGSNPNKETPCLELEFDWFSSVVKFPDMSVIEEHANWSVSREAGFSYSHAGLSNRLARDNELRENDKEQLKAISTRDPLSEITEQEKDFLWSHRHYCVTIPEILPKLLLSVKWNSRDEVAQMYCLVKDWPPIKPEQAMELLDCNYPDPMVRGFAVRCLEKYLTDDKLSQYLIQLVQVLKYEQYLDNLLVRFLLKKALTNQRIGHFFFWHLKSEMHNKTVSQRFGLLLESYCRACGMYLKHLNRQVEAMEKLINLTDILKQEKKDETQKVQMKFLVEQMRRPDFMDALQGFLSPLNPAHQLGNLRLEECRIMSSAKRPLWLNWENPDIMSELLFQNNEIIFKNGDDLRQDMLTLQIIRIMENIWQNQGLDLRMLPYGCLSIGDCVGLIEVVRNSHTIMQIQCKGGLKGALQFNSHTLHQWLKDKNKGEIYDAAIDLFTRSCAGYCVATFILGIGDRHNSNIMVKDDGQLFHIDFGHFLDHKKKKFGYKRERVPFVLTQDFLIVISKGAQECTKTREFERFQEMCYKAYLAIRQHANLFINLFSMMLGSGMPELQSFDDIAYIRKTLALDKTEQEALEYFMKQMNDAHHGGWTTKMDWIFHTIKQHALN
# Target sequence in this assay (P27986 whole entry partner): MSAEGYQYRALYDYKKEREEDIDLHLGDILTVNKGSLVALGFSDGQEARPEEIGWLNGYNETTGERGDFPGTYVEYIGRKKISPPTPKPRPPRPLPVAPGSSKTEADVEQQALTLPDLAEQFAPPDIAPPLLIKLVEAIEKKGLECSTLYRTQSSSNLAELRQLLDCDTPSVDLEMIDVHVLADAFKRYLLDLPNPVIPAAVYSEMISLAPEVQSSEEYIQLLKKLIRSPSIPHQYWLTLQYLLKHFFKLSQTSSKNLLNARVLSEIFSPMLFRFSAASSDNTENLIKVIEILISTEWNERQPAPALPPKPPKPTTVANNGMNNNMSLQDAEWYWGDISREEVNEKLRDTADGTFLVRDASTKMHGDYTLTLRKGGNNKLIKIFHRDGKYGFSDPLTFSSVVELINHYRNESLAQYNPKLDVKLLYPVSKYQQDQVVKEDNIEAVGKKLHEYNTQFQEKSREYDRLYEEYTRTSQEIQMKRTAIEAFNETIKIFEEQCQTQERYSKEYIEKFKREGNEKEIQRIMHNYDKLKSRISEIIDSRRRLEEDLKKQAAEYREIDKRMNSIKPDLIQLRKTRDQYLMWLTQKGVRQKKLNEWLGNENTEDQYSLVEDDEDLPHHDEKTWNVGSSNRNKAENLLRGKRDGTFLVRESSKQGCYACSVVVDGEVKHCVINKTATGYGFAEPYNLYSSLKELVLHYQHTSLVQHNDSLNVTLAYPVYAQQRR
# [2] = molecular target: T2, MET (Homo sapiens, UniProt P08581); experiment: DiscoverX KINOMEscan competition binding assay; settings: compound 10 µM; lower values = higher affinity; below 35% = significant binding
# T2 construct: purchased DiscoverX (KINOMEscan service); host or cells: E. coli BL21-derived host (T7 phage) or HEK-293
# Protocol: (§5) Ligand binding experiments for the molecules selected from Profiles 1 and 2 towards nine kinases (EGFR, ErbB2, LCK, CDK2, BRAF, MET, p38α, PI3K and VEGFR2) and for molecules selected from Profiles 3 and 4 towards four kinases (EGFR, ErbB2, BRAF and VEGFR2) were carried out by DiscoverX using the supplied protocol as described in the Supplementary Materials. Briefly, ligand affinity was measured by competition with a resin-bound standard ligand and washed-off kinase concentration was determined via qPCR.
# (§6) Summarizing, binding of a compound to a kinase was tested in comparison to a control compound (see Table S2). […]
# (§7) 1.1. DiscoverX kinase assay
# (§8) For most assays, kinase-tagged T7 phage strains were grown in parallel in 24-well blocks in an E.coli host derived from the BL21 strain. E.coli were grown to log-phase and infected with T7 phage from a frozen stock (multiplicity of infection = 0.4) and incubated with shaking at 32°C until lysis (90-150 minutes). The lysates were centrifuged (6,000 x g) and ﬁltered (0.2µm) to remove cell debris.
# (§9) The remaining kinases were produced in HEK-293 cells and subsequently tagged with DNA for qPCR detection. Streptavidin-coated magnetic beads were treated with biotinylated small molecule ligands for 30 minutes at room temperature to generate afﬁnity resins for the kinases. The liganded beads were blocked with excess biotin and washed with blocking buffer (SeaBlock [Pierce], 1% BSA, 0.05% Tween 20, 1 mM DTT) to remove unbound ligands and to reduce non-speciﬁc phage binding. Binding reactions were assembled by combining kinases, liganded afﬁnity beads, and test compounds in 1x binding buffer (20% SeaBlock, 0.17x PBS, 0.05% Tween 20, 6 mM DTT). Test compounds were prepared as 40x stocks in 100% DMSO and directly diluted into the assay. All reactions were performed in polypropylene 384-well plates in a ﬁnal volume of 0.02 ml. The assay plates were incubated at room temperature with shaking for 1 hour and the afﬁnity beads were washed with wash buffer (1x PBS, 0.05% Tween 20). The beads were then re-suspended in elution buffer (1x PBS, 0.05% Tween 20, 0.5 µM non-biotinylated afﬁnity ligand) and incubated at room temperature with shaking for 30 minutes. The kinase concentration in the eluates was measured by qPCR. […]
# (§10) Table S2. Experimental % control values from the DiscoverX kinase assay. Compounds were tested against the nine kinases EGFR, ErbB2, LCK, CDK2, BRAF, MET, p38α, PI3K and VEGFR2, unless otherwise stated. Binding of kinase and compound were tested at a compound concentration of 10 µM and in comparison to a control compound. Lower values indicate a higher afﬁnity of the compound to the protein and values below 35% indicate signiﬁcant binding according to information of the CRO. […]
# (§11) a Compounds were only tested against four kinases (EGFR, ErbB2, BRAF and VEGFR2). b Compound was selected independently from two docking proﬁles and tested separately during
# [3] = molecular target: T3, ErbB2 (Homo sapiens, UniProt P04626); experiment: DiscoverX KINOMEscan competition binding assay; settings: compound 10 µM; lower values = higher affinity; below 35% = significant binding
# T3 construct: purchased DiscoverX (KINOMEscan service); host or cells: E. coli BL21-derived host (T7 phage) or HEK-293
# Protocol: as §5, §6, §7, §8, §9, §10, §11
# [4] = molecular target: T4, BRAF (Homo sapiens, UniProt P15056); experiment: DiscoverX KINOMEscan competition binding assay; settings: for % control, BRAF (DiscoverX): compound 10 µM, lower values = higher affinity, below 35% = significant binding
# T4 construct: purchased DiscoverX (KINOMEscan service); host or cells: E. coli BL21-derived host (T7 phage) or HEK-293
# Protocol: as §5, §6, §7, §8, §9, §10, §11
# [5] = molecular target: T5, p38α (Homo sapiens, UniProt Q16539); experiment: DiscoverX KINOMEscan competition binding assay; settings: compound 10 µM; lower values = higher affinity; below 35% = significant binding
# T5 construct: purchased DiscoverX (KINOMEscan service); host or cells: E. coli BL21-derived host (T7 phage) or HEK-293
# Protocol: as §5, §6, §7, §8, §9, §10, §11
# [6] = molecular target: T6, VEGFR2 (Homo sapiens, UniProt P35968); experiment: DiscoverX KINOMEscan competition binding assay; settings: compound 10 µM; lower values = higher affinity; below 35% = significant binding
# T6 construct: purchased DiscoverX (KINOMEscan service); host or cells: E. coli BL21-derived host (T7 phage) or HEK-293
# Protocol: as §5, §6, §7, §8, §9, §10, §11
# [7] = molecular target: T7, CDK2 (Homo sapiens, UniProt P24941); experiment: DiscoverX KINOMEscan competition binding assay; settings: compound 10 µM; lower values = higher affinity; below 35% = significant binding
# T7 construct: purchased DiscoverX (KINOMEscan service); host or cells: E. coli BL21-derived host (T7 phage) or HEK-293
# Protocol: as §5, §6, §7, §8, §9, §10, §11
# [8] = molecular target: T8, LCK (Homo sapiens, UniProt P06239); experiment: DiscoverX KINOMEscan competition binding assay; settings: compound 10 µM; lower values = higher affinity; below 35% = significant binding
# T8 construct: purchased DiscoverX (KINOMEscan service); host or cells: E. coli BL21-derived host (T7 phage) or HEK-293
# Protocol: as §5, §6, §7, §8, §9, §10, §11
# [9] = molecular target: T9, EGFR (Homo sapiens, UniProt P00533); experiment: DiscoverX KINOMEscan competition binding assay; settings: compound 10 µM; lower values = higher affinity; below 35% = significant binding
# T9 construct: purchased DiscoverX (KINOMEscan service); host or cells: E. coli BL21-derived host (T7 phage) or HEK-293
# Protocol: as §5, §6, §7, §8, §9, §10, §11
# [10] = molecular target: T3, ErbB2; experiment: Eurofins in vitro kinase inhibition assay; assay type: biochemical; settings: compound 20 µM; mean (SD); above 50% significant, 25-50% weak
# Protocol: as §1, §2, §3, §4
# [11] = molecular target: T4, BRAF; experiment: Eurofins in vitro kinase inhibition assay; assay type: biochemical; settings: compound 20 µM; mean (SD); above 50% significant, 25-50% weak
# Protocol: as §1, §2, §3, §4
# [12] = molecular target: T9, EGFR; experiment: Eurofins in vitro kinase inhibition assay; assay type: biochemical; settings: compound 20 µM; mean (SD); above 50% significant, 25-50% weak
# Protocol: as §1, §2, §3, §4
# [13] = molecular target: T1, PI3K; experiment: DiscoverX KINOMEscan competition binding assay; parameters: purchased DiscoverX (KINOMEscan service); host or cells: E. coli BL21-derived host (T7 phage) or HEK-293; settings: compound 10 µM; lower values = higher affinity; below 35% = significant binding
# Protocol: as §5, §6, §7, §8, §9, §10, §11
# Target sequence in this assay (P42336 whole entry): as the sequence (P42336 whole entry) above
# T5 sequence (Q16539 whole entry): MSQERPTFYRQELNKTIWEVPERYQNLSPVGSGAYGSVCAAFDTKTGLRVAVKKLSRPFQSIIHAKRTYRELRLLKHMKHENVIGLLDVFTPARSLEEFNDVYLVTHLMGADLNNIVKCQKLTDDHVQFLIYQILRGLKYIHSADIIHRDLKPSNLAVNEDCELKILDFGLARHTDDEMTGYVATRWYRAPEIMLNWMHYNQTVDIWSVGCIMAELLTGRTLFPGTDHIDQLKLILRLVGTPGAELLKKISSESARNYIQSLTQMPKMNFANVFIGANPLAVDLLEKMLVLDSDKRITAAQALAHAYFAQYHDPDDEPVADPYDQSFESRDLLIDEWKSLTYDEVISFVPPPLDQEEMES
# T6 sequence (P35968 20-1356): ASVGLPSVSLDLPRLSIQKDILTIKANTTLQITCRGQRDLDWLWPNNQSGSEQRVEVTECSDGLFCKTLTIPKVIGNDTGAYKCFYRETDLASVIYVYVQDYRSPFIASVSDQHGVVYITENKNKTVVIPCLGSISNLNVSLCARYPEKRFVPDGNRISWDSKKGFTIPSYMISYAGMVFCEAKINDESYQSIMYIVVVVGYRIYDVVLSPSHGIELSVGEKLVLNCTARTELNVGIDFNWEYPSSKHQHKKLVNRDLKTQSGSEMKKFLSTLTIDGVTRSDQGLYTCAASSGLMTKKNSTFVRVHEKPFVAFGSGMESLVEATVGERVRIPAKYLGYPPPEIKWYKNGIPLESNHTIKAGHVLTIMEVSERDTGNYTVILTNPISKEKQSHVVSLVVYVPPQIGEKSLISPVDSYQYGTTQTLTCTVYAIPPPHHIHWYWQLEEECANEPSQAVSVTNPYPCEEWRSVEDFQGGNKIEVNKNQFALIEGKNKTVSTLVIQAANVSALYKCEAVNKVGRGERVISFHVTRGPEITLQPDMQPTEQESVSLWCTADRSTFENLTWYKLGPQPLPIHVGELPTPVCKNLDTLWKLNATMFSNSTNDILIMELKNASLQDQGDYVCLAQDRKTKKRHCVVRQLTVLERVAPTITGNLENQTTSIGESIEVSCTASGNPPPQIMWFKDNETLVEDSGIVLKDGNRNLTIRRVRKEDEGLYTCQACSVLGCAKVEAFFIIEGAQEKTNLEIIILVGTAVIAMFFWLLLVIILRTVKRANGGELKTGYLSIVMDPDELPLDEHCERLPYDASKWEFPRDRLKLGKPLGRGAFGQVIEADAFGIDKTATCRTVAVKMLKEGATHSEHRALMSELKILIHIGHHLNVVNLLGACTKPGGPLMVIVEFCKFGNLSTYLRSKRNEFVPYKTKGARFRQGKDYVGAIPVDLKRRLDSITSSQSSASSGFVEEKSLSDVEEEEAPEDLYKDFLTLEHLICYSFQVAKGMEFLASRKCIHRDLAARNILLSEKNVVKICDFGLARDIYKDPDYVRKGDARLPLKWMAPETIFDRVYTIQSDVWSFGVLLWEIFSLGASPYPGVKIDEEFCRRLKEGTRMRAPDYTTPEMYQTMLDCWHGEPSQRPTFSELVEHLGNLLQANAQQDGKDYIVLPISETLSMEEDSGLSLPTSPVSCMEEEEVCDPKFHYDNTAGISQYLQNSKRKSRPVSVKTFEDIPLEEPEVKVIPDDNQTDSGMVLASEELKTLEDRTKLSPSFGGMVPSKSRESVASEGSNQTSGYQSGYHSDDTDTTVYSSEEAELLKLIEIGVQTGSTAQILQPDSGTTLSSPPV
# T3 sequence (P04626 23-1255): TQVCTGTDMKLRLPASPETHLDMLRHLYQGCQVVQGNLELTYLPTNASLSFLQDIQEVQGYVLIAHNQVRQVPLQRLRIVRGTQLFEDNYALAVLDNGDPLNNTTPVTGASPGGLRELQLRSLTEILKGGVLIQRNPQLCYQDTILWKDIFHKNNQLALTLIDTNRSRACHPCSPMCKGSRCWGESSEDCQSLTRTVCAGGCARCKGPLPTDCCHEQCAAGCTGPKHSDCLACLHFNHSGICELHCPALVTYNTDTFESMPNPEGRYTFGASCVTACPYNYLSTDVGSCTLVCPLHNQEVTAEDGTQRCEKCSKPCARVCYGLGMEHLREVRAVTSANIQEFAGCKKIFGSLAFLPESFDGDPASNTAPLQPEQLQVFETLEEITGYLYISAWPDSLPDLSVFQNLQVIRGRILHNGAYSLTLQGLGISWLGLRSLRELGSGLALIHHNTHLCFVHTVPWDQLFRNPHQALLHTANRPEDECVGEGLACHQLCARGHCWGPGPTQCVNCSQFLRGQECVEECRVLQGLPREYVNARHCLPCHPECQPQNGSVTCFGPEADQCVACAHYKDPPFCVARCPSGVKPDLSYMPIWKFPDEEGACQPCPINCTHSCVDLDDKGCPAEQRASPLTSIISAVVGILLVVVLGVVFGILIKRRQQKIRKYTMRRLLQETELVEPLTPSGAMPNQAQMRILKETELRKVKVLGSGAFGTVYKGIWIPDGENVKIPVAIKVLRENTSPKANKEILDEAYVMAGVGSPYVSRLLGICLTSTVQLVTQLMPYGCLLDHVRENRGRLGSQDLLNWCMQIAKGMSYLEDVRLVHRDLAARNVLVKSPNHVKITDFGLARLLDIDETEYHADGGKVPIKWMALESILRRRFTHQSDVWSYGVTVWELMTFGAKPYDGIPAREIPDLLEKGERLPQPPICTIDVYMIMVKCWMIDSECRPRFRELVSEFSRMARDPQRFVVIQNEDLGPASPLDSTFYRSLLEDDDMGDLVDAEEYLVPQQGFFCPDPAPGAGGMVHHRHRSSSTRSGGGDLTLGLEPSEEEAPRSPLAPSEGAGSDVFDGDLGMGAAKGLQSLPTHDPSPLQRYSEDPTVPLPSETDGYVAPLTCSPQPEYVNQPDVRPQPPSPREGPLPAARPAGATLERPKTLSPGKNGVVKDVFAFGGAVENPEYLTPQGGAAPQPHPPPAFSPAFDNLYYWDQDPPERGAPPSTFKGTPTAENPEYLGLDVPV
SMILES,"% inhibition of control activity, PI3K (Eurofins) [1]","% control, MET (DiscoverX) [2]","% control, ErbB2 (DiscoverX) [3]","% control, BRAF (DiscoverX) [4]","% control, p38α (DiscoverX) [5]","% control, VEGFR2 (DiscoverX) [6]","% control, CDK2 (DiscoverX) [7]","% control, LCK (DiscoverX) [8]","% control, EGFR (DiscoverX) [9]","% inhibition of control activity, ErbB2 (Eurofins) [10]","% inhibition of control activity, BRAF (Eurofins) [11]","% inhibition of control activity, EGFR (Eurofins) [12]","% control, PI3K (DiscoverX) [13]","% ctrl. activity at 10 µM, BRAF (DiscoverX), printed as symbol ([4]; 10 µM, Table 3)"
CCc1nnc(NC(=O)c2nn(-c3ccc(C)cc3)ccc2=O)s1 [DS59212],0.2 (3.6) % inhibition,97 % control,100 % control,100 % control,99 % control,100 % control,100 % control,100 % control,100 % control,5.8 (0.2) % inhibition,-22.9 (4.9) % inhibition,7.8 (3.3) % inhibition,87 % control,–
Cc1ccc(-n2cnnn2)cc1NC(=O)NC1CC1 [DS44245],1.8 (4.4) % inhibition,90 % control,100 % control,99 % control,100 % control,98 % control,100 % control,100 % control,100 % control,-3.4 (1.0) % inhibition,-13.7 (10.5) % inhibition,2.4 (14.7) % inhibition,100 % control,–
Cc1ccccc1Cn1cnc2c(nnn2-c2ccccc2)c1=O [K001MM003],–,–,99 % control,95 % control,–,100 % control,–,–,99 % control,–,–,–,–,–
Cc1ccc(NC(=O)COC(=O)c2cc(=O)[nH]c3ccccc23)cc1 [K001MM012],–,–,100 % control,100 % control,–,91 % control,–,–,90 % control,–,–,–,–,–
COCCCNC(=O)c1nc2c3c4c(sc3ncn2n1)CCC[C@H]4C [DS66846],4.6 (7.7) % inhibition,92 % control,96 % control,100 % control,100 % control,100 % control,100 % control,100 % control,100 % control,-2.5 (1.6) % inhibition,-18.7 (11.9) % inhibition,14.5 (8.6) % inhibition,100 % control,–
COCCCNC(=O)c1nc2c3c4c(sc3ncn2n1)CC[C@H](C)C4 [DS31939],–,100 % control,100 % control,100 % control,100 % control,100 % control,100 % control,99 % control,100 % control,-1.7 (0.8) % inhibition,-27.8 (10.8) % inhibition,9.6 (0.2) % inhibition,73 % control,–
Nc1nc(N2CCC[C@H](Cc3nc4ccccc4[nH]3)C2)c2nc[nH]c2n1 [K001MM010],–,–,90 % control,100 % control,–,97 % control,–,–,95 % control,–,–,–,–,–
CCOCC(C)(C)NC(=O)Nc1cc(F)ccc1OC [K001MM006],–,–,100 % control,100 % control,–,100 % control,–,–,96 % control,–,–,–,–,–
COCCNC(=O)NC(C)Cc1ccc(O)cc1 (stereo not drawn) [K001MM004],–,–,100 % control,100 % control,–,100 % control,–,–,100 % control,–,–,–,–,–
Cc1cccc(NC(=O)N[C@H](C)[C@H](C)N2CCOCC2)n1 [K001MM007],–,–,94 % control,87 % control,–,100 % control,–,–,90 % control,–,–,–,–,–
CC(C)OCC(O)CN1CCN(C(=O)c2cccc(Cl)c2)CC1 (stereo not drawn) [K001MM002],–,–,92 % control,89 % control,–,100 % control,–,–,97 % control,–,–,–,–,–
CC1Oc2ccc(Nc3ncnc4c3oc3ccccc34)cc2NC1=O (stereo not drawn) [K001MM011],–,–,–,100 % control,–,99 % control,–,–,–,–,–,–,–,"– ^d (percent control activity ≥ 99%, i.e., no measurable inhibition)"
CCc1nccc(-c2nccn2C(Cn2cccn2)c2ccccc2)n1 (stereo not drawn) [DS23815],–,99 % control,100 % control,99 % control,100 % control,100 % control,99 % control,100 % control,100 % control,-7.2 (5.7) % inhibition,-19.7 (2.4) % inhibition,10.7 (0.4) % inhibition,97 % control,–
CCCCn1nnnc1CN1CCc2nn(CC)c(=O)cc2C1 [K001MM005],–,–,100 % control,99 % control,–,100 % control,–,–,100 % control,–,–,–,–,–
Cc1cc(COC(=O)c2cnc3c(cnn3Cc3ccccc3)c2)on1 [K001MM013],–,–,94 % control,100 % control,–,90 % control,–,–,100 % control,–,–,–,–,–
